Experimental data from patent US12337023B2, “Methods and compositions for the prevention and treatment of disease” (Stealth BioTherapeutics Inc., priority 2014, dated 2025).
Non-standard residues stand in square brackets, D forms with d. Residues, ends and D or L forms follow the SMILES beside them. No end group written: not given here. Dmt = Cc1cc(O)cc(C)c1C[C@H](N)C(=O)O

Tests used:
mu-opioid receptor = mu-opioid receptor (Homo sapiens, UniProt P35372); details: stated in the description, no test described; cited from earlier work
mu-opioid receptor, sequence (P35372 whole entry, species assumed): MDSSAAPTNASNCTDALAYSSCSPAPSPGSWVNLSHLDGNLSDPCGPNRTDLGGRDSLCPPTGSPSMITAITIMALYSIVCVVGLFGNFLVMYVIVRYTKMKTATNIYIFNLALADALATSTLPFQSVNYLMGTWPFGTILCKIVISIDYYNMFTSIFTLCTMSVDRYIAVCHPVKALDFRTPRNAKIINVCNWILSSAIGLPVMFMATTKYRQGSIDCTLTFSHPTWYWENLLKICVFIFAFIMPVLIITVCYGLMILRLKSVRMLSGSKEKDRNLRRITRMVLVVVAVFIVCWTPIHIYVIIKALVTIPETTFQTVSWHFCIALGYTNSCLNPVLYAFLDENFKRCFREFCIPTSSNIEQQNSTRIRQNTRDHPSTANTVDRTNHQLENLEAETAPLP

[1] = test system: several mammalian cell types; details: energy-independent manner (Zhao, et al., 2003); cited from earlier work
[2] = test system: Col4a3 null mice (Alport mice); experiment: Survival of Col4a3 null mice (Alport Syndrome mouse model); assay type: in vivo; details: 1 mg/kg or 5 mg/kg once daily subcutaneous
Description: Six animals from experimental groups (1)-(4) were sacrificed for tissue collection at week 15. One kidney from each animal was harvested for protein/RNA analysis and the second kidney was collected for paraffin sections for analysis via microscopy. Survival data was collected for the remaining 10 animals in groups (1)-(4).

[3] = Col4a3 null mice, daily 5 mg/kg, 15 weeks of age, 30 minutes after the last injection; compared with 5 mg/kg at 6 weeks and 1 mg/kg at 15 weeks
Description: Homozygous male Col4a3 null mice and wild-type litter mates were used in this study. Subjects were divided into the following groups: • (1) Healthy wild-type controls • (2) Col4a3 null mice treated with water • (3) Col4a3 null mice treated with 1 mg/kg D-Arg-2′6′-Dmt-Lys-Phe-NH2 • (4) Col4a3 null mice treated with 5 mg/kg D-Arg-2′6′-Dmt-Lys-Phe-NH2 • (5) Col4a3 null mice treated with 5 mg/kg D-Arg-2′6′-Dmt-Lys-Phe-NH2 (Pharmacokinetics group)
Groups (1)-(4) consisted of 16 mice, out of which 10 were used for survival rate studies and 6 for pathology and RNA/protein analysis. Group (5) consisted of 6 mice, 3 of which were sacrificed at 30 minutes after the 7th injection (age, 6 weeks), and 3 at 24 hours after the 7th injection (age, 6 weeks).

Tyr-D-Arg-Phe-Lys-NH2
mu-opioid receptor agonist activity (mu-opioid receptor): has mu-opioid receptor agonist activity

2′,6′-Dmt-D-Arg-Phe-Lys-NH2
penetration of the plasma membrane [1]: readily penetrates the plasma membrane

Cc1cc(O)cc(C)c1C[C@H](NC(=O)[C@H](N)CCCNC(=N)N)C(=O)N[C@@H](CCCCN)C(=O)N[C@@H](Cc1ccccc1)C(N)=O [D-Arg-2′,6′-Dmt-Lys-Phe-NH2] (H-[dR][Dmt]KF-NH2)
harm of peptide administration [2]: not harmful | plasma levels [3]: highest

F[dR]FK-NH2
mu-opioid receptor agonist activity (mu-opioid receptor): does not have mu-opioid receptor agonist activity
